From PubChem BioAssay AID2060887 (Molecular Pharmacology Branch, DTP, NCI, 2025)

System: 782815-120-R-J1-PDC complex spheroid viability
Experiment: Anticancer human tumor 782815-120-R-J1-PDC patient-derived colon adenocarcinoma cell line growth inhibition [RAS]
Conditions: for IC50: curve of first compound; for viability, T/C: stronger effect = lower value
How it was run: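 Agents were tested in combination matrices in half-log decrements from a top concentration at or near clinical Cmax (10 microM if undetermined). Targets were multi-cell spheroids of tumour lines plus HUVEC and MSC stromal cells.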

[1] = second compound 0.00316 µM, first compound 0.0316 µM
[2] = second compound 0.00316 µM, first compound 0.1 µM
[3] = second compound 0.00316 µM, first compound 0.316 µM
[4] = second compound 0.00316 µM, first compound 1 µM
[5] = second compound 0.01 µM, first compound 0.0316 µM
[6] = second compound 0.01 µM, first compound 0.1 µM
[7] = second compound 0.01 µM, first compound 0.316 µM
[8] = second compound 0.01 µM, first compound 1 µM
[9] = second compound 0.0316 µM, first compound 0.0316 µM
[10] = second compound 0.0316 µM, first compound 0.1 µM
[11] = second compound 0.0316 µM, first compound 0.316 µM
[12] = second compound 0.0316 µM, first compound 1 µM
[13] = second compound 0.1 µM, first compound 0.0316 µM
[14] = second compound 0.1 µM, first compound 0.1 µM
[15] = second compound 0.1 µM, first compound 0.316 µM
[16] = second compound 0.1 µM, first compound 1 µM
[17] = second compound 0.316 µM, first compound 0.0316 µM
[18] = second compound 0.316 µM, first compound 0.1 µM
[19] = second compound 0.316 µM, first compound 0.316 µM
[20] = second compound 0.316 µM, first compound 1 µM
[21] = second compound 1 µM, first compound 0.0316 µM
[22] = second compound 1 µM, first compound 0.1 µM
[23] = second compound 1 µM, first compound 0.316 µM
[24] = second compound 1 µM, first compound 1 µM
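Note: spheroids exposed to compounds for 7 days before reading.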
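Throughout, for viability, T/C: 100% = DMSO vehicle control viability.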

Q: What does the source list for `CC(Nc1ccc2c(c1)OCCn1cc(N3C(=O)OCC3C(F)F)nc1-2)C(N)=O` (centres undefined) + C=CC(=O)N1CCN(c2nc(OCC3CCCN3C)nc3c(F)c(-c4nc(N)cc(C)c4C(F)(F)F)c(Cl)cc23)C(C)C1?
A: IC50 (second compound 0.00316 µM): > 10000 nM; IC50 (second compound 0.01 µM): > 10000 nM; IC50 (second compound 0.0316 µM): > 10000 nM; IC50 (second compound 0.1 µM): > 10000 nM; IC50 (second compound 0.316 µM): > 10000 nM; IC50 (second compound 1 µM): > 10000 nM; viability, T/C [1]: 92.9%; viability, T/C [2]: 87.6%; viability, T/C [3]: 88.4%; viability, T/C [4]: 79.1%; viability, T/C (second compound 0.00316 µM, first compound 3.16 µM): 99.6%; viability, T/C (second compound 0.00316 µM, first compound 10 µM): 103%; viability, T/C [5]: 93.5%; viability, T/C [6]: 98.6%; viability, T/C [7]: 95.8%; viability, T/C [8]: 83.6%; viability, T/C (second compound 0.01 µM, first compound 3.16 µM): 103%; viability, T/C (second compound 0.01 µM, first compound 10 µM): 98.8%; viability, T/C [9]: 93.2%; viability, T/C [10]: 93.6%; viability, T/C [11]: 82.3%; viability, T/C [12]: 80.6%; viability, T/C (second compound 0.0316 µM, first compound 3.16 µM): 87.8%; viability, T/C (second compound 0.0316 µM, first compound 10 µM): 93.3%; viability, T/C [13]: 88.3%; viability, T/C [14]: 91.1%; viability, T/C [15]: 94.1%; viability, T/C [16]: 86.1%; viability, T/C (second compound 0.1 µM, first compound 3.16 µM): 102%; viability, T/C (second compound 0.1 µM, first compound 10 µM): 93.2%; viability, T/C [17]: 93.6%; viability, T/C [18]: 86.4%; viability, T/C [19]: 86.4%; viability, T/C [20]: 89.2%; viability, T/C (second compound 0.316 µM, first compound 3.16 µM): 85.1%; viability, T/C (second compound 0.316 µM, first compound 10 µM): 101%; viability, T/C [21]: 95.2%; viability, T/C [22]: 79.5%; viability, T/C [23]: 87.2%; viability, T/C [24]: 85.2%; viability, T/C (second compound 1 µM, first compound 3.16 µM): 97.8%; viability, T/C (second compound 1 µM, first compound 10 µM): 92.8%

Q: With `O=C(c1ccc(F)c(F)c1Nc1ccc(I)cc1F)N1CC(O)([C@@H]2CCCCN2)C1` + C=CC(=O)N1CCN(c2nc(OCC3CCCN3C)nc3c(F)c(-c4nc(N)cc(C)c4C(F)(F)F)c(Cl)cc23)C(C)C1 as the compound, how does the IC50 (second compound 0.00316 µM) read?
A: 74.5 nM

Q: What about the IC50 (second compound 0.01 µM) of the same compound?
A: 67.8 nM

Q: And the IC50 (second compound 0.0316 µM)?
A: 67.5 nM

Q: And the IC50 (second compound 0.1 µM)?
A: 100 nM

Q: What about the IC50 (second compound 0.316 µM) of the same compound?
A: 83.8 nM

Q: What about the IC50 (second compound 1 µM) of the same compound?
A: 82.1 nM

Q: And the viability, T/C (second compound 0.00316 µM, first compound 0.00316 µM)?
A: 91.2%

Q: What about the viability, T/C (second compound 0.00316 µM, first compound 0.01 µM) of the same compound?
A: 87.7%

Q: And the viability, T/C [1]?
A: 64.6%

Q: What about the viability, T/C [2] of the same compound?
A: 44.3%

Q: And the viability, T/C [3]?
A: 21.8%

Q: And the viability, T/C [4]?
A: 3.64%

Q: And the viability, T/C (second compound 0.01 µM, first compound 0.00316 µM)?
A: 93.1%

Q: And the viability, T/C (second compound 0.01 µM, first compound 0.01 µM)?
A: 86.5%

Q: And the viability, T/C [5]?
A: 64.6%

Q: What about the viability, T/C [6] of the same compound?
A: 40.9%

Q: What about the viability, T/C [7] of the same compound?
A: 21.7%

Q: And the viability, T/C [8]?
A: 4.13%

Q: What about the viability, T/C (second compound 0.0316 µM, first compound 0.00316 µM) of the same compound?
A: 99.3%

Q: And the viability, T/C (second compound 0.0316 µM, first compound 0.01 µM)?
A: 79.5%

Q: And the viability, T/C [9]?
A: 64.2%

Q: What about the viability, T/C [10] of the same compound?
A: 46.3%

Q: And the viability, T/C [11]?
A: 19%

Q: And the viability, T/C [12]?
A: 4.19%

Q: And the viability, T/C (second compound 0.1 µM, first compound 0.00316 µM)?
A: 84.1%

Q: And the viability, T/C (second compound 0.1 µM, first compound 0.01 µM)?
A: 90.1%

Q: And the viability, T/C [13]?
A: 68.3%

Q: And the viability, T/C [14]?
A: 52.4%

Q: And the viability, T/C [15]?
A: 20.7%

Q: And the viability, T/C [16]?
A: 4.3%

Q: What about the viability, T/C (second compound 0.316 µM, first compound 0.00316 µM) of the same compound?
A: 90.5%

Q: What about the viability, T/C (second compound 0.316 µM, first compound 0.01 µM) of the same compound?
A: 88.5%

Q: And the viability, T/C [17]?
A: 66.2%

Q: And the viability, T/C [18]?
A: 47.7%

Q: What about the viability, T/C [19] of the same compound?
A: 22%

Q: What about the viability, T/C [20] of the same compound?
A: 4.23%

Q: What about the viability, T/C (second compound 1 µM, first compound 0.00316 µM) of the same compound?
A: 88.9%

Q: And the viability, T/C (second compound 1 µM, first compound 0.01 µM)?
A: 93.5%

Q: What about the viability, T/C [21] of the same compound?
A: 66.1%

Q: What about the viability, T/C [22] of the same compound?
A: 45.5%

Q: And the viability, T/C [23]?
A: 23.1%

Q: What about the viability, T/C [24] of the same compound?
A: 4.2%
